Measurements reported in patent EP2961788B1, “NANOPARTICLES STABILIZED WITH NITROPHENYLBORONIC ACID COMPOSITIONS” (priority 2013, dated 2014).
Where two headings read alike, the source gives them in different places.

System: BT-474 xenograft tumors
Method: Treatments began on day 1. […] All treatments were freshly prepared and given via intravenous tail vein injection. Injections were standardized at 150 µl per 20 g body weight of mice. […] Tumor sizes were recorded three times a week using caliper measurements (length x width^2/2) and health of the animals was continuously monitored. Animals were euthanized when tumor volumes exceeded 1000 mm^3. Six weeks after beginning of the treatment, animals were euthanized by CO2 asphyxiation.

[1] = 8 mg/kg, once per week for 3 weeks
[2] = 80 mg/kg, once per week for 3 weeks

| Compound | Nend (number of animals surviving to end of study) (8 mg/kg (MAP-CPT: CPT basis), i.v. once per week for 3 weeks) | NTRD (number of treatment related death) [1] | Nreg to zero [1] | tumor inhibition compared to control group [1] | NTRD (number of treatment related death) [2] | Neuthan (number of animals euthanized due to exceeding tumor size limit of 1000 mm^3) [2] | Nreg to zero [2] | tumor inhibition compared to control group [2] |
| --- | --- | --- | --- | --- | --- | --- | --- | --- |
| CC[C@@]1(O)C(=O)OCc2c1cc1n(c2=O)Cc2cc3ccccc3nc2-1 [CPT, Camptothecin] | 8/0 | 4 | 0 | no tumor inhibition |  |  |  |  |
| CCc1c2c(nc3ccc(OC(=O)N4CCC(N5CCCCC5)CC4)cc13)-c1cc3c(c(=O)n1C2)COC(=O)[C@]3(O)CC [Irinotecan] |  |  |  |  | 1 | 0 | 0 | non-significant tumor inhibition |
